Target: AcrR (Mycobacterium tuberculosis, UniProt O07229)
Sequence (O07229 entry or part of it): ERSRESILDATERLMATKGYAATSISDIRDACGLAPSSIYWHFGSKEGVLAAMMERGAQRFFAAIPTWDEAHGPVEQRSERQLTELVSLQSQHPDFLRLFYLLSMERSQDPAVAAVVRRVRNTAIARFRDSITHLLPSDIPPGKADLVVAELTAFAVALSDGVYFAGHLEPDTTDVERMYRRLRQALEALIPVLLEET

CCCCCCCCCCCCCCCC(=O)O [palmitate]
STD-NMR; also EMSA (promoter DNA release) and CD titration: which reveals the binding between AcrR and palmitate

Source: publication PMC6768106, “The crystal structure of AcrR from Mycobacterium tuberculosis reveals a one‐component transcriptional regulation mechanism” (FEBS Open Bio, 2019)
